Measured values reported in ChEMBL document CHEMBL1143093 (Bioorg Med Chem Lett, 2008).

Experiments:
[1] = molecular target: Sodium-dependent serotonin transporter (Homo sapiens, UniProt P31645)
Description: Inhibition of serotonin uptake at human SERT expressed in HEK293 cells

[2] = molecular target: Sodium-dependent dopamine transporter (Homo sapiens, UniProt Q01959); assay: Inhibition of dopamine uptake at human DAT expressed in HEK293 cells; format: cell-based
[3] = molecular target: Sodium-dependent noradrenaline transporter (Homo sapiens, UniProt P23975); assay: Inhibition of norepinephrine uptake at human NET expressed in HEK293 cells; format: cell-based
[4] = Ratio of drug level in brain to plasma in rat at 30 mg/kg, po after 4 hrs; format: ADME, organism-based; design: dose 30 mg/kg, route oral
[5] = Metabolic stability in human liver microsomes assessed as systemic clearance; format: ADME, Microsome
[6] = Cmax in rat at 30 mg/kg, po; format: ADME, organism-based; design: dose 30 mg/kg, route oral; conditions: in vivo
[7] = Tmax in rat at 30 mg/kg, po; format: ADME, organism-based; design: dose 30 mg/kg, route oral; conditions: in vivo
[8] = Drug level in rat brain at 30 mg/kg, po at 1 hr; format: ADME, organism-based; design: dose 30 mg/kg, route oral; conditions: read-out: Drug uptake
[9] = AUC in rat at 30 mg/kg, po; format: ADME, organism-based; design: dose 30 mg/kg, route oral; conditions: plasma
[10] = Ratio of drug level in brain to plasma in rat at 30 mg/kg, po after 1 hr; format: ADME, organism-based; design: dose 30 mg/kg, route oral
[11] = Drug level in rat brain at 30 mg/kg, po at 4 hrs; format: ADME, organism-based; design: dose 30 mg/kg, route oral; conditions: read-out: Drug uptake
[12] = Metabolic stability in rat liver microsomes assessed as systemic clearance; format: ADME, Microsome
[13] = Lipophilicity, log P of the compound; format: physicochemical; conditions: octanol/water
[14] = Apparent permeability across human Caco-2 cells; format: ADME, cell-based
[15] = Distribution coefficient, log D of the compound; format: physicochemical; conditions: octanol/water
[16] = Dissociation constant, pKa of the compound; format: physicochemical
[17] = Ratio of drug level in brain to plasma in rat at 10 mg/kg, po after 1 hr
[18] = Drug level in rat brain at 10 mg/kg, po at 4 hrs; format: ADME, organism-based; design: dose 10 mg/kg, route oral; conditions: read-out: Drug uptake
[19] = Cmax in rat at 10 mg/kg, po; format: ADME, organism-based; design: dose 10 mg/kg, route oral; conditions: in vivo
[20] = Ratio of drug level in brain to plasma in rat at 10 mg/kg, po after 4 hrs
[21] = Drug level in rat brain at 10 mg/kg, po at 1 hr; format: ADME, organism-based; design: dose 10 mg/kg, route oral; conditions: read-out: Drug uptake
[22] = AUC in rat at 10 mg/kg, po; format: ADME, organism-based; design: dose 10 mg/kg, route oral; conditions: plasma
[23] = Tmax in rat at 10 mg/kg, po; format: ADME, organism-based; design: dose 10 mg/kg, route oral; conditions: in vivo

Chain of Sodium-dependent serotonin transporter (P31645 whole entry): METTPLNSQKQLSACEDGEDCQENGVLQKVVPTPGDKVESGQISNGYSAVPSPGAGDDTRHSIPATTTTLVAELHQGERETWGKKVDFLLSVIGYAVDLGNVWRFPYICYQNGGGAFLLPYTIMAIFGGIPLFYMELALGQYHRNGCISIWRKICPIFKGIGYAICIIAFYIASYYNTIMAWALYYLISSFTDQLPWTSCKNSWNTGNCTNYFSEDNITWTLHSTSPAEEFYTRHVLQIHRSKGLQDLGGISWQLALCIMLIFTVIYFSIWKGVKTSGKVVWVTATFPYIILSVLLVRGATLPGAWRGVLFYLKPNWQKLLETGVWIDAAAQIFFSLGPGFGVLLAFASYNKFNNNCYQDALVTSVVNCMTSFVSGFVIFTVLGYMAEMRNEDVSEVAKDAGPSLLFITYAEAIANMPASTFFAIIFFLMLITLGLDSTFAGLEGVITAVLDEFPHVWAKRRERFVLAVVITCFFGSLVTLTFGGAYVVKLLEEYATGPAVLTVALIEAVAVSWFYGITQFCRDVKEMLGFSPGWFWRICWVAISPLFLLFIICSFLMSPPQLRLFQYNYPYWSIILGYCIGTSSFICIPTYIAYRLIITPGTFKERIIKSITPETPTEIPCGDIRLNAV
Chain of Sodium-dependent dopamine transporter (Q01959 whole entry): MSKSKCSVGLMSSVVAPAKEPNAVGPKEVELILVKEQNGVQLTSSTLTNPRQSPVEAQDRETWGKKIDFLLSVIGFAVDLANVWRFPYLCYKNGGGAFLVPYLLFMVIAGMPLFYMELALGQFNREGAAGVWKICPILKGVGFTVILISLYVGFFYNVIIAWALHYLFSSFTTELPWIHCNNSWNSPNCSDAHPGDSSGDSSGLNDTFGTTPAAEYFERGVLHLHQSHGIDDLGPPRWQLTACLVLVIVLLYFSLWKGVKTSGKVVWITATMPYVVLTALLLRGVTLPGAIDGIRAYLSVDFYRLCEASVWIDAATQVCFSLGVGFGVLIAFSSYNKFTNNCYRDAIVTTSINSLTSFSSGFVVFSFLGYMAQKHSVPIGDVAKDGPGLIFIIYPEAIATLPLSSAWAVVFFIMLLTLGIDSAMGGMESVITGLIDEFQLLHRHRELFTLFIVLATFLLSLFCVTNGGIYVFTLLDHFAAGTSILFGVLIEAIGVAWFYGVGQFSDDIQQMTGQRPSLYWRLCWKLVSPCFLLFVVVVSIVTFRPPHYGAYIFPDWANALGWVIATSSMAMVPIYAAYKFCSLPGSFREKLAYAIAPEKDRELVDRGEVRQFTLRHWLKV
Chain of Sodium-dependent noradrenaline transporter (P23975 whole entry): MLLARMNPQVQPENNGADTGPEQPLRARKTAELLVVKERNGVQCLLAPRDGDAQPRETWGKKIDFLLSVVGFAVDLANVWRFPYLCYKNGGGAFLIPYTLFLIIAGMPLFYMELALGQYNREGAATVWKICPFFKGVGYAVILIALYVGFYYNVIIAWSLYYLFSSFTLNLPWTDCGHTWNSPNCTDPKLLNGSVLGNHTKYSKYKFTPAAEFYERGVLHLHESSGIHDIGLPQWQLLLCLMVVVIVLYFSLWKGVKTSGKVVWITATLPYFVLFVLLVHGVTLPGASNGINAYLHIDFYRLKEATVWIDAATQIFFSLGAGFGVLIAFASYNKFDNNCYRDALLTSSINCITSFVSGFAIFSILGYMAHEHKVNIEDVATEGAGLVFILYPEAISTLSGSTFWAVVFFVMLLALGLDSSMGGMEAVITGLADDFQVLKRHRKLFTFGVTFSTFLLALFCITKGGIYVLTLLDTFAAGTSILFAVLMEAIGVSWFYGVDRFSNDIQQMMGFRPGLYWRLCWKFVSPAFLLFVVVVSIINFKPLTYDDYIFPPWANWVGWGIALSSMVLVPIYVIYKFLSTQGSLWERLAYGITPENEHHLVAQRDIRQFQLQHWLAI

SMILES | IC50 [1] | IC50 [2] | IC50 [3] | CLhep predicted [5] | CLhep predicted [12] | Papp [14] | further results
CCN(CC)C(=O)[C@@]1(c2cccnc2)C[C@H]1CN | 4000 nM | > 10000 nM | 1500 nM | – | – | – | –
CCN(CC)C(=O)[C@@]1(c2cc(Cl)c(Cl)s2)C[C@H]1CN | 2200 nM | > 10000 nM | 560 nM | – | – | – | –
C=CCN(CC)C(=O)[C@@]1(c2ccsc2)C[C@H]1CN | 140 nM | > 10000 nM | 5.6 nM | 6.8 mL/min/kg | 57 mL/min/kg | 6.4 ×10⁻⁶ cm/s | Kp at 4 h [4]: 0.4; Cmax [6]: 201 ng/mL; Tmax [7]: 30 min; concentration at 1 h [8]: 39 ng/g; AUC [9]: 502 ng·h/mL; Kp at 1 h [10]: 0.3; concentration at 4 h [11]: 15 ng/g; logP [13]: 1.5; logD [15]: 0.1; pKa [16]: 9.5
CCN(CC)C(=O)[C@@]1(c2csc3ccccc23)C[C@H]1CN | 3100 nM | > 10000 nM | 170 nM | – | – | – | –
NC[C@@H]1C[C@@]1(C(=O)N1CCc2ccccc2C1)c1ccsc1 | 320 nM | > 10000 nM | 8.3 nM | – | – | – | –
CCN(CC)C(=O)[C@]1(c2ccccc2)C[C@@H]1CN | – | – | – | < 2.6 mL/min/kg | 18 mL/min/kg | – | –
NC[C@@H]1C[C@@]1(C(=O)N1CCCc2ccccc21)c1ccsc1 | 420 nM | > 10000 nM | 20 nM | – | – | – | –
NC[C@@H]1C[C@@]1(C(=O)N1C=CCCC1)c1ccsc1 | 1800 nM | > 10000 nM | 200 nM | – | – | – | –
C#CCN(C)C(=O)[C@@]1(c2ccsc2)C[C@H]1CN | 34 nM | > 10000 nM | 110 nM | – | – | – | –
C=CCN(CC=C)C(=O)[C@@]1(c2ccsc2)C[C@H]1CN | 76 nM | 8300 nM | 2.7 nM | 4.7 mL/min/kg | 59 mL/min/kg | 9.5 ×10⁻⁶ cm/s | –
C=C(F)CN(CCOC)C(=O)[C@@]1(c2ccsc2)C[C@H]1CN | 40 nM | > 10000 nM | 3.9 nM | < 2.6 mL/min/kg | 54 mL/min/kg | 3.4 ×10⁻⁶ cm/s | –
CCN(CC)C(=O)[C@@]1(c2ccccc2)C[C@H]1CN [LEVOMILNACIPRAN] | – | – | – | – | 24 mL/min/kg | – | Kp at 1 h [17]: 0.42; concentration at 4 h [18]: 55 ng/g; Cmax [19]: 232 ng/mL; Kp at 4 h [20]: 0.86; concentration at 1 h [21]: 103 ng/g; AUC [22]: 566 ng·h/mL; Tmax [23]: 18 min; pKa [16]: 9.6
CCN(CC)C(=O)[C@@]1(c2cc3cc(F)ccc3s2)C[C@H]1CN | 290 nM | > 10000 nM | 150 nM | – | – | – | –
C#CCN(CC=C)C(=O)[C@@]1(c2ccsc2)C[C@H]1CN | 71 nM | > 10000 nM | 2.8 nM | < 2.6 mL/min/kg | 44 mL/min/kg | 9.6 ×10⁻⁶ cm/s | –
CCN(CC)C(=O)[C@@]1(c2ccsc2)C[C@H]1CNC | – | > 10000 nM | 3700 nM | – | – | – | –
C=CCN(C(=O)[C@@]1(c2ccsc2)C[C@H]1CN)C1CC1 | 26 nM | > 10000 nM | 8.7 nM | < 2.6 mL/min/kg | 42 mL/min/kg | 5.3 ×10⁻⁶ cm/s | –
CCN(CC)C(=O)[C@@]1(c2sc(Cl)c(Cl)c2Cl)C[C@H]1CN | 2000 nM | > 10000 nM | 270 nM | – | – | – | –

SMILES | IC50 [1] | IC50 [2] | IC50 [3] | CLhep predicted [5] | CLhep predicted [12] | Papp [14] | further results
CCN(CC)C(=O)[C@@]1(c2ccc(Br)s2)C[C@H]1CN | 350 nM | 6300 nM | 29 nM | – | – | – | –
C#CCN(CC#C)C(=O)[C@@]1(c2ccsc2)C[C@H]1CN | 84 nM | > 10000 nM | 8.2 nM | < 2.6 mL/min/kg | 42 mL/min/kg | 16.4 ×10⁻⁶ cm/s | –
CCN(CC)C(=O)[C@@]1(c2nc3ccccc3s2)C[C@H]1CN | 9600 nM | > 10000 nM | 2200 nM | – | – | – | –
NC[C@@H]1C[C@@]1(C(=O)N1C=COc2ccccc21)c1ccsc1 | 340 nM | > 10000 nM | 12 nM | 13 mL/min/kg | 67 mL/min/kg | 20 ×10⁻⁶ cm/s | –
CCN(CC)C(=O)[C@@]1(c2ccc(Cl)s2)C[C@H]1CN | 520 nM | > 10000 nM | 40 nM | – | – | – | –
CCN(CC)C(=O)[C@@]1(c2ccccn2)C[C@H]1CN | 3500 nM | > 10000 nM | 1500 nM | – | – | – | –
C=CCN(C)C(=O)[C@@]1(c2ccsc2)C[C@H]1CN | 60 nM | > 10000 nM | 100 nM | – | – | – | –
NC[C@@H]1C[C@@]1(C(=O)N1Cc2ccccc2C1)c1ccsc1 | – | 6900 nM | 37 nM | 10 mL/min/kg | 66 mL/min/kg | 4.7 ×10⁻⁶ cm/s | –
CCN(CC)C(=O)[C@@]1(c2cc3ccccc3s2)C[C@H]1CN | 620 nM | 2400 nM | 65 nM | – | – | – | –
CCN(CC)C(=O)[C@@]1(c2ccsc2)C[C@H]1CN | 830 nM | > 10000 nM | 49 nM | 7.1 mL/min/kg | 34 mL/min/kg | 4.7 ×10⁻⁶ cm/s | –
CCN(CC)C(=O)[C@@]1(c2cccs2)C[C@H]1CN | 520 nM | > 10000 nM | 76 nM | – | – | – | –
CCN(CC)C(=O)[C@@]1(c2ccsc2)C[C@H]1CN(C)C | > 10000 nM | > 10000 nM | > 10000 nM | – | – | – | –
C=C(F)CN(C)C(=O)[C@@]1(c2ccsc2)C[C@H]1CN | 60 nM | > 10000 nM | 44 nM | < 2.6 mL/min/kg | 32 mL/min/kg | 13.8 ×10⁻⁶ cm/s | –
COCCN(C)C(=O)[C@@]1(c2ccsc2)C[C@H]1CN | 590 nM | > 10000 nM | 1100 nM | – | – | – | –
C=CCN(CCOC)C(=O)[C@@]1(c2ccsc2)C[C@H]1CN | 47 nM | > 10000 nM | 20 nM | < 2.6 mL/min/kg | 52 mL/min/kg | 2.4 ×10⁻⁶ cm/s | –
C#CCN(CCOC)C(=O)[C@@]1(c2ccsc2)C[C@H]1CN | 47 nM | > 10000 nM | 64 nM | < 2.6 mL/min/kg | 18 mL/min/kg | 3.2 ×10⁻⁶ cm/s | –
